Results as given in US20250188088A1, “COMPOUND AND USE THEREOF” (ONQUALITY PHARMACEUTICALS CHINA LTD., priority 2022, published 2025).

Key:
[1] = Log D measurement (n-octanol/PBS shake, LC-MS/MS); format: physicochemical; conditions: pH 7.4, read-out: LogD7.4 (Oct/buff)
Description: Two replicates of test compounds (DMSO stock solution 10 mM, 2 μL/well) and QCs (DMSO 10 mM, 2 μL/well) were transferred from the storage tube to a 96-well cluster tube. Add buffer-saturated n-octanol ([…]) and n-octanol-saturated PBS (149 μL/well) to each well; vortex mix the cluster tube for 1 minute, mix by shaking on a plate shaker at 880 rpm for one hour, and then centrifuge at 4000 rpm for 10 minutes. Remove the cover pad, accurately measure a certain amount of n-octanol layer samples (4 μL/well) into a 96-well plate containing n-octanol internal standard diluent (796 μL/well); accurately measure a certain amount of buffer salt layer samples (30 μL/well) into a 96-well plate containing buffer internal standard diluent (570 μL/well); the dilution factor of the sample can be adjusted according to different properties of the sample. Samples were analyzed using a triple quadrupole mass spectrometer. The processed sample solution was analyzed by the fast isocratic elution and small column retention method, the concentration correction was carried out by dilution factor and internal standard, and the ratio of the corrected peak area was used to calculate the final result (Log D/Log P value).

[2] = test system: rash caused by small molecule EGFR inhibitors; assay: Prevention of rash caused by small molecule EGFR inhibitors, topical ointment, rat model; format: in vivo, SD rats
Outline: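 Female SD rats (~200 g, dorsal hair shaved, 10/group) dosed daily by gavage with small-molecule EGFR inhibitors; compound ointment or blank matrix applied once daily to ~3 cm×3 cm of back, left 4 h, then wiped off. Repeated until obvious rash in controls; control rate = % of treated rats with milder rash than controls.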

[3] = test system: skin contact delayed-type hypersensitivity; assay: Skin contact delayed-type hypersensitivity (DNFB) response test, ear swelling, topical ointment; format: in vivo; conditions: topical to ears, DNFB DTH, Balb/c mice, compared to blank ointment
Outline: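 Balb/c mice sensitized with DNFB on the back on Days 0–1, then challenged on Day 5 with 0.2% DNFB on both ears. Ear thickness measured by micrometer 24–72 h after challenge. Compound ointment applied topically over Days −1–7 or Days 4–7; effect is the reduction in ear swelling versus blank ointment, with ≥20% deemed effective.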

logD [1]: 0.63
SMILES: C[C@@H]1CCN(C(=O)CC#N)C[C@@H]1N(C)c1ncnc2c1ccn2C(=O)N(C)CCOC(=O)C1CCCO1 (stereo partly shown) [Compound A7]
Control Rate ([2]; Afatinib 40 mg/kg once a day, ointment 0.1 wt% once a day, 14 days): 20% | Control Rate ([2]; Afatinib 40 mg/kg once a day, ointment 0.3 wt% once a day, 14 days): 50% | Control Rate ([2]; Afatinib 40 mg/kg once a day, ointment 1.0 wt% once a day, 14 days): 70% | Control Rate ([2]; Afatinib 40 mg/kg once a day, ointment 3.0 wt% once a day, 14 days): 75% | Control Rate ([2]; Afatinib 40 mg/kg once a day, ointment 5.0 wt% once a day, 14 days): 80% | Control Rate ([2]; Afatinib 40 mg/kg once a day, ointment 10.0 wt% once a day, 14 days): 60% | Control Rate ([2]; Dacomitinib 10 mg/kg once a day, ointment 1.0 wt% once a day, 12 days): 40% | Control Rate ([2]; Dacomitinib 10 mg/kg once a day, ointment 5.0 wt% once a day, 12 days): 80% | Control Rate ([2]; EAI045 80 mg/kg once a day, ointment 1.0 wt% once a day, 11 days): 30% | Control Rate ([2]; EAI045 80 mg/kg once a day, ointment 10.0 wt% once a day, 11 days): 60% | Control Rate ([2]; Gefitinib 80 mg/kg twice a day, ointment 0.3 wt% once a day, 15 days): 10% | Control Rate ([2]; Gefitinib 80 mg/kg twice a day, ointment 1.0 wt% once a day, 15 days): 50% | Control Rate ([2]; Gefitinib 80 mg/kg twice a day, ointment 3.0 wt% once a day, 15 days): 60% | Control Rate ([2]; Gefitinib 80 mg/kg twice a day, ointment 5.0 wt% once a day, 15 days): 60% | Control Rate ([2]; Osimertinib 60 mg/kg twice a day, ointment 0.3 wt% once a day, 10 days): 20% | Control Rate ([2]; Osimertinib 60 mg/kg twice a day, ointment 5.0 wt% once a day, 10 days): 70% | Reduction Rate of Ear Swelling ([3]; ointment 0.05 wt%): 18% | Reduction Rate of Ear Swelling ([3]; ointment 0.1 wt%): 22% | Reduction Rate of Ear Swelling ([3]; ointment 1.0 wt%): 27% | Reduction Rate of Ear Swelling ([3]; ointment 5.0 wt%): 35% | Reduction Rate of Ear Swelling ([3]; ointment 10.0 wt%): 42%
